Test results published in publication PMC11053447, “Human ABC and SLC Transporters: The Culprit Responsible for Unspecific PSMA-617 Uptake?” (Pharmaceuticals, 2024).
One block for each molecule: values may come before it.

Key:
human OCT3 = target: T1, human OCT3 (Homo sapiens, UniProt O75751); assay: SLC transporter substrate assay, HEK293-OCT3-LV vs control HEK293-Mock-LV cells; format: in vitro ADME; conditions: 3 min
T1 construct: host or cells: HEK293-OCT3-LV
T1 sequence (O75751 1-556): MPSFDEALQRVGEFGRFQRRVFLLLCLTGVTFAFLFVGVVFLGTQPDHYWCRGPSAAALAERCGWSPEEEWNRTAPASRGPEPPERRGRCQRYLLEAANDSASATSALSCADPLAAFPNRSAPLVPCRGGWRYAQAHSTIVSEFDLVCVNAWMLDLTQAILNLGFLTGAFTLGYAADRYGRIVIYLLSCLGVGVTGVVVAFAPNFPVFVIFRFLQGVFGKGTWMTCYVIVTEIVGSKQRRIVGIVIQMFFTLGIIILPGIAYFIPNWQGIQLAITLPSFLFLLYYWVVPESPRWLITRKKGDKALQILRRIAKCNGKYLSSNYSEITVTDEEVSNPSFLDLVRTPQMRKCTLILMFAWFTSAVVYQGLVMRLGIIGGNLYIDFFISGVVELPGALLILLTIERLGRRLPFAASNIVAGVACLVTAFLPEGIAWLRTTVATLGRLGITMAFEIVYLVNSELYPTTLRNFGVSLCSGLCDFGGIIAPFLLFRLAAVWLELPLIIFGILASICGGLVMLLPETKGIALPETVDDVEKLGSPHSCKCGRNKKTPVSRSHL
Description: (§1) SI4. Results of transporter substrate assays (SLC)
(§2) Human Incubation Positive control substrate/ Control Special Incubation Assay […]
(Cell line) at 37°C [min] [h] […]
into transfected and control cells.
(§3) Fold accumulation = UPTTRP
(§4) PSMA-617 in SLC transporters.
(§5) NA: not analyzed. Test substances were considered as substrates in case of fold accumulation values > 2 combined with inhibition values higher than 50%.
4.7 Organic cation transporter OCT3
(HEK293-OCT3-LV) and control cells (HEK293-Mock-LV) applying 2- and 20-minute incubation periods, measured in SLC transporter substrate assay. […] Concentrations are nominal.
Table S16: ([α,β-3H]Nal)Lu-PSMA-617-accumulation in OCT3 transporter-expressing (HEK293-OCT3-LV) and control […]
(§6) Conditions Accumulation (pmol/mg protein)
Compound Nominal In OCT3 Fold concentration Minutes transporter In control Active accumulation
(§7) [µM] expressing cells transport
(§8) Positive control (accumulation in cpm)
MPP +: 1-methyl -4-phenylpyridinium.

human OAT1 = target: T2, human OAT1 (Homo sapiens, UniProt Q4U2R8); assay: SLC transporter substrate assay, HEK293-OAT1-LV vs control HEK293-Mock-B-LV cells; conditions: 2 min
T2 sequence (Q4U2R8 1-563): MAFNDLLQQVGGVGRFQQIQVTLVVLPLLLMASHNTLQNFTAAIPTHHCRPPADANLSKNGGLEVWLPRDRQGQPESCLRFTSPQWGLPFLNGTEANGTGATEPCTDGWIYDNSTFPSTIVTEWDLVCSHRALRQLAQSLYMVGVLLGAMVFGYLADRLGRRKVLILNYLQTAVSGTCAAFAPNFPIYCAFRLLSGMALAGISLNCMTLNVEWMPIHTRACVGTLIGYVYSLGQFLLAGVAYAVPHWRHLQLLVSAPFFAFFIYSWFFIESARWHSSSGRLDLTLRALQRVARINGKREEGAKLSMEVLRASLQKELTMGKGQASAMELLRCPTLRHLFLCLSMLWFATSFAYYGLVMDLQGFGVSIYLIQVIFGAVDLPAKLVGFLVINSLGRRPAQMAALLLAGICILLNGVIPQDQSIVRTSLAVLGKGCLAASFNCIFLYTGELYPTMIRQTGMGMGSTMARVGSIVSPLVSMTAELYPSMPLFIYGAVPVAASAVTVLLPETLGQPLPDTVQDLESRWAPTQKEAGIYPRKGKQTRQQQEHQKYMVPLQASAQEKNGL

human OAT2v1 = target: T3, human OAT2v1 (Homo sapiens, UniProt Q9Y694); assay: SLC transporter substrate assay, HEK293-OAT2v1-LV vs control HEK293-Mock-LV cells; format: in vitro ADME; conditions: 1 min
T3 construct: host or cells: HEK293-OAT2v1-LV
T3 sequence (Q9Y694 1-546 isoform Q9Y694-2): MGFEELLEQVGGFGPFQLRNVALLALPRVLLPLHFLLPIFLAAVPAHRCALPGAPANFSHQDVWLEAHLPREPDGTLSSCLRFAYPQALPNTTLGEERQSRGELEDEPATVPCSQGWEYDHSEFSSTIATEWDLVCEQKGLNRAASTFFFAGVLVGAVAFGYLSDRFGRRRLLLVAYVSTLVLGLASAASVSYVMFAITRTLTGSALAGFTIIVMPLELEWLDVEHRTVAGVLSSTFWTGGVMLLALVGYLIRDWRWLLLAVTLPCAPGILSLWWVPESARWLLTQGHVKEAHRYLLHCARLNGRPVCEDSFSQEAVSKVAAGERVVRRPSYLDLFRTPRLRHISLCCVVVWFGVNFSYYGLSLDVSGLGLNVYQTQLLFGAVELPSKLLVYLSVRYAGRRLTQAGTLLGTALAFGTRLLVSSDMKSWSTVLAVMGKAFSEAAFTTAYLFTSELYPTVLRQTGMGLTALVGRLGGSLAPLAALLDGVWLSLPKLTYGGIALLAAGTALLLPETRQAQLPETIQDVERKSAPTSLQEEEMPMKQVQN
Description: as §1, §2
(Cell line) at 37°C [min] [h]
OAT2v1 cGMP (1.5) / Mock-B- Poly-D-lysine
as §3, §4, §5
4.4 Organic anion transporter OAT2v1 […]
expressed as mean (n=3) ± SD. Concentrations are nominal.
Table S13: ([α,β-3H]Nal)Lu-PSMA-617-accumulation in OAT2v1 transporter expressing (HEK293-OAT2v1-LV) and […]
as §6
Compound Nominal In OAT2v1 Fold concentration Minutes transporter In control Active accumulation
as §7, §8

[1] = positive control: MPP+ 0.02 µM + Quinidine 1000 µM
[2] = positive control: Tenofovir 5 µM + Probenecid 300 µM
[3] = positive control: Tenofovir 5 µM
[4] = positive control: cGMP 1.82 µM + Indomethacin 300 µM

Compound: C[n+]1ccc(-c2ccccc2)cc1 [MPP+, 1-Methyl-4-phenylpyridin-1-ium, reference compound]
Accumulation in OCT3 transporter expressing cells (human OCT3; [1]): 1429.667 cpm
Accumulation in control cells (human OCT3; [1]): 233.000 cpm
Accumulation, active transport (human OCT3; [1]): 1196.667 cpm
Fold accumulation (human OCT3; [1]): 6.14
Accumulation in OCT3 transporter expressing cells (human OCT3; positive control: MPP+ 0.02 µM): 10728.333 cpm
Accumulation in control cells (human OCT3; positive control: MPP+ 0.02 µM): 629.333 cpm
Accumulation, active transport (human OCT3; positive control: MPP+ 0.02 µM): 10099.000 cpm
Fold accumulation (human OCT3; positive control: MPP+ 0.02 µM): 17.05

Accumulation in OAT1 transporter expressing cells (human OAT1; [2]): 372.67 cpm
Accumulation in control cells (human OAT1; [2]): 77.00 cpm
Accumulation, active transport (human OAT1; [2]): 295.67 cpm
Fold accumulation (human OAT1; [2]): 4.84
Accumulation in OAT1 transporter expressing cells (human OAT1; [3]): 7739.67 cpm
Accumulation in control cells (human OAT1; [3]): 85.00 cpm
Accumulation, active transport (human OAT1; [3]): 7654.67 cpm
Fold accumulation (human OAT1; [3]): 91.05
Compound: C[C@H](Cn1cnc2c(N)ncnc21)OCP(=O)(O)O [Tenofovir, tenofovir, reference compound]

Compound: Nc1nc2c(ncn2[C@@H]2O[C@@H]3COP(=O)(O)O[C@H]3[C@H]2O)c(=O)[nH]1 [cGMP, guanosine 3′,5′-cyclic monophosphate, reference compound]
Accumulation in OAT2v1 transporter expressing cells (human OAT2v1; [4]): 551.67 cpm
Accumulation in control cells (human OAT2v1; [4]): 67.67 cpm
Accumulation, active transport (human OAT2v1; [4]): 484.00 cpm
Fold accumulation (human OAT2v1; [4]): 8.15
Accumulation in OAT2v1 transporter expressing cells (human OAT2v1; positive control: cGMP 1.82 µM): 9207.33 cpm
Accumulation in control cells (human OAT2v1; positive control: cGMP 1.82 µM): 75.00 cpm
Accumulation, active transport (human OAT2v1; positive control: cGMP 1.82 µM): 9132.33 cpm
Fold accumulation (human OAT2v1; positive control: cGMP 1.82 µM): 122.76
